Columns and labels:
[1] = test system: Sommerweizens Sorte Botanicheskaya 4; experiment: Field test of gametocidal activity, spring wheat Botanicheskaya 4; type: in vivo, Weizen; settings: period V, 1% aqueous emulsion, 6 kg/ha in 600 l water
Source text: (§1) Die gametozide Aktivität der erfindungsgemäßen Sterilisationsmittel war in Feldversuchen in verschiedenen bodenklimatischen Zonen mit Teilstücken von 10 m^2 Größe in dreibis viermaliger Wiederholung festgestellt. Jedes Sterilisationsmittel wurde mindenstens 5 Jahre lang geprüft.
(§2) Die Entwicklung der Perioden der Organogenese wird zytologisch überwacht. Die Behandlung von Pflanzen mit dem Sterilisationsmittel erfolgt am Anfang der fünften Periode der Organogenese nach Kupermann.
(§3) Mit dem Ährenschieben verwirklicht man die Isolierung von Hauptähren und anderen Stockwerken in Pergametbeuteln. Bei Weizen und Tritikale werden Einzelisolatoren benutzt. Bei Roggen schließt man je 1 Ähre von […] verschiedenen nebeneinander befindlichen Pflanzen unter einen gemeinsamen Isolator ein. Bei Hirse wird jede Rispe getrennt isoliert. Der Sterilitätsprozentsatz (X) für Weizen, Roggen, Tritikale und Hirse wird nach der Formel [formula] ermittelt.
(§4) Die Kornzahl in nicht isolierten Ähren von Kontrollpflanzen wird bedingt für 100 % Ansetzen bei freier Bestäubung angenommen.
(§5) Um zuverlässige Angaben zu erhalten, verwendet man 20 bis 25 Isolatoren je Wiederholung für Weizen und Tritikale, 10 bis 15 Isolatoren jeder Wiederholung für Roggen und Hirse.
Pflanzen des Sommerweizens Sorte Botanicheskaya 4 werden in der V. Periode der Organogenese (nach Kupermann) mit einer 1%igen wäßrigen Emulsion von 1,3-Dibrompropan, 1,1,1,3-Tetrabromheptan, 1,1,2-Tribromheptan bzw. 1,2--Dibromheptan behandelt. Die Emulsion enthält 0,5 Masse% C12-C14-Kalziumalkylbenzolsulfonat und 0,01 Masse% Dimethylsulfoxid als Adjuvans. Der Verbrauch an Präparat beträgt 6 kg/ha bei 600 1 Wasserdurchsatz. Als Kontrolle dienen Pflanzen, behandelt mit dem Verdünner ohne Sterilisationsmittel.
Die Prüfergebnisse sind in der Tabelle 4 angegeben. Die gleichen Ergebnisse sind bei der Behandlung des Sommerweizens Sorte Botanicheskaya 4 in der VI. Periode der Organogenese erhalten.

[2] = test system: Sommerweizens Sorte Moskowskaya 35; experiment: Field test of gametocidal activity, spring wheat Moskowskaya 35; type: in vivo, Weizen; settings: for Kornzahl der Ähre bei freier Bestäubung / Kornzahl der Ähre im Isolator / Prozentsatz des Ansetzens von Samen bei freier Bestäubung: Moskowskaya 35, period V, 1% aqueous emulsion, 6 kg/ha in 600 l water; for Prozentsatz des Ansetzens von Samen bei freier Bestäubung: control = 100; for pest or weed control at 6000 g/ha: read-out: Prozentsatz der Sterilität
Source text: as §1, §2, §3, §4, §5
Pflanzen des Sommerweizens Sorte Moskowskaya 35 werden in der V. Periode der Organogenese (nach Kupermann) mit einer l%igen wäßrigen Emulsion von 1,1,3-Tribrompropan, […], 1,1,2,3-Tetrabrompropan, 1,2,3-Tribrompropan, 1,2-Dibrompropan, 1,1,3-Tribrom-3-chlorpropan, 1,2-Dibrom-3-chlorpropan, 1,3-Dibrompropan, 1,1,1,3-Tetrabromheptan bzw. 1,1,3-Tribromheptan behandelt. Die Emulsion enthält als Emulgierungsmittel 0,5 Masse% C12-C14-Kalzium- alkylbenzolsulfonat und als Adjuvans 0,01 Masse% Dimethylformamid. Der Verbrauch an Präparat beträgt 6 kg/ha bei 600 1 Wasserdurchsatz. Als Kontrolle dienen Pflanzen, behandelt mit dem Verdünner ohne Sterilisationsmittel.
Die Prüfergebnisse sind in der Tabelle 2 angegeben. Die gleichen Ergebnisse sind bei der Behandlung des Sommerweizens Sorte Moskowskaya 35 in der VI.Periode der Organogenese erhalten.

[3] = test system: Hirse Sorte Mironovskoye 94; experiment: Field test of gametocidal activity, millet Mironovskoye 94; type: in vivo
Source text: as §1, §2, §3, §4, §5
Pflanzen der Hirse Sorte Mironovskoye 94 werden in der V.Periode der Organogenese mit einer 1%igen wäßrigen Emulsion von 1,1,3-Tribrompropan, 1,2,3-Tribrompropan, 1,2-Dibrompropan, 1,2-Dibrom-3-chlorpropan, 1,3-Dibrompropan, 1,1,1,3-Tetrabromheptan, 1,1,3-Tribromheptan, 1,2-Dibromheptan behandelt. Die Emulsion enthält 0,5 Masse% C12-C14--Kalziumalkylbenzolaulfonat und 0,01 Masse% Dimethylsulfoxid als Adjuvans. Der Verbrauch an Präparat beträgt 6 kg/ha bei 600 1 Wasserdurchsatz. Die Prüfergebnisse sind in der Tabelle 15 angegeben. Die gleichen Ergebnisse sind bei der Behandlung der Hirse Sorte Mironovskoye 94 in der VI. Periode der Organogenese erhalten.

[4] = test system: Sommerweizens Sorte Rodina; experiment: Field test of gametocidal activity, spring wheat Rodina; type: in vivo, Weizen; settings: period V, 1% aqueous emulsion, 6 kg/ha in 600 l water
Source text: as §1, §2, §3, §4, §5
Pflanzen des Sommerweizens Sorte Rodina werden in der V.Periode der Organogenese (nach Kupermann) mit einer l%igen wäßrigen Emulsion von 1,3-Dibrompropan, 1,1,1,3-Tetrabromheptan, 1,1,3-Tribromheptan bzw. 1,2-Dibromheptan behandelt. Die Emulsion enthalt 0,5 Masse% C12-C14 Kalziumalk^ylbenzol- sulfonat und 0,01 Masse% Dodezylsulfat. Der Verbrauch an Präparat beträgt 6 Kg/ha bei 600 1 Wasserdurchsatz. Als Kontrolle dienen Pflanzen, behandelt mit dem Verdünner ohne Sterilisationsmittel.
Die Prüfergebnisse sind in der Tabelle 3 angegeben. Die gleichen Ergebnisse sind bei der Behandlung des Sommerweizens Sorte Rodina in der VI. Periode der Organogenese erhalten.

[5] = test system: Winterweizens Sorte Mironowskaya 808; experiment: Field test of gametocidal activity (anther sterilisation), winter wheat Mironowskaya 808; type: in vivo, Weizen; settings: for Kornzahl der Ähre bei freier Bestäubung / Kornzahl der Ähre im Isolator / Prozentsatz des Ansetzens von Samen bei freier Bestäubung: Mironowskaya 808, period V of organogenesis, 1% aqueous emulsion, 10 kg/ha; for Prozentsatz des Ansetzens von Samen bei freier Bestäubung: control = 100; for pest or weed control at 1 %, 10000 g/ha: read-out: Prozentsatz der Sterilität %
Source text: as §1, §2, §3, §4, §5
Pflanzen des Winterweizens Sorte Mironowskaya 808 werden in der V.Periode der Organogenese durch Zerstäubung der 2%igen wäßrigen Emulsion von 1,1,3-Tribrompropan mit Hilfe einer Rückenspritze behandelt.
Als Emulgierungsmittel setzt man 0,5 Masse% C12-C14--Kalziumalkylbenzolsulphonat zu. Als Adjuvans enthält die Emulsion 0,01 Masse% Dimethylsulfoxid. Der Verbrauch an Präparat beträgt 20 kg/ha bei 1000 Liter Wasserdurchsatz. Als Kontrolle dienen Pflanzen, behandelt mit einem Verdünner ohne Sterilisationsmittel. Die Ergebnisse sind in der Tabelle 1 angegeben.
Der ProzeB wird analog zu dem in Beispiel 1 beschriebenen durchgeführt. Als Sterilisationsmittel verwendet man eine 2%ige waßrige Emulsion von 1,1,3-Tribrom-4-chlorbutan, 1,1,2,3-Tetrabrompropan. Die Prüfergebnisse sind in der Tabelle 1 angegeben.
Der Prozeß wird analog zu dem in Beispiel 1 beschriebenen durchgeführt, nur daß man 1%ige wäßrige Emulsion von 1,2,3-Tribrompropan, 1,2-Dibrompropan, 1,1,3-Tribrom-3--chlorpropan, 1,2-Dibrom-3-chlorpropan, 1,3-Dibrompropan, 1,1,1,3-Tetrabromheptan, 1,1,3-Tribromheptan, 1,2-Dibromheptan verwendet. Die Präparatdosis beträgt 10 kg ha. Die Prüfergebnisse sind in der Tabelle 1 angegeben. Die gleichen Ergebnisse sind bei der Behandlung des Weizens Sorte Mironowskaya 808 in der VI. Periode der Organogenese erhalten.

diploidem Roggen Chulpan = experiment: Field test of gametocidal activity, diploid rye Chulpan; type: in vivo; settings: for Kornzahl der Ähre bei freier Bestäubung / Kornzahl der Ähre im Isolator / Prozentsatz des Ansetzens von Samen bei freier Bestäubung: Chulpan, period V, 1% aqueous emulsion, 10 kg/ha; for Prozentsatz des Ansetzens von Samen bei freier Bestäubung: control = 100; for pest or weed control at 10000 g/ha: read-out: Prozentsatz der Sterilität
Source text: as §1, §2, §3, §4, §5
Pflanzen von diploidem Roggen Chulpan werden in der V.Periode der Organogenese mit einer 1%igen wäßrigen Emulsion von 1,1,3-Tribrompropan, 1,1,3-Tribrom-4-chlorbutan, 1,1,2,3-Tetrabrompropan, 1,2,3-Tribrompropan, 1,2-Dibrompropan, 1,1,3-Tribrom-3-ohlorpropan, 1,2-Dibrom-3--chlorpropan, 1,3-Dibrompropan, 1,1,1,3-Tetrabromheptan, 1,1,3-Tribromheptan bzw. 1,2-Dibromheptan behandelt. Die Emulsion enthält 0,5 Masse% C12-C14-Kalziumalkylbenzolsul- fonat und 0,01 Masse% Dimethylsulfoxid. Der Verbrauch an Präparat beträgt 10 kg/ha. Die Prüfergebnisse sind in der Tabelle 11 angegeben. Die gleichen Ergebnisse sind bei der Behandlung von diploidem Roggen Chulpan in der VI. Periode der Organogenese erhalten.

[6] = Toxicity in animal test (LD50); parameters: species or system Mäuse; settings: in vivo, mice stated only for 1,1,3-Tribrompropan, species not given for the others
Source text: Alle erfindungsgemäßen Polybromalkane, die als Sterilisationsmittel zur Verwendung kommen, waren auf die Toxizität im Tierversuch geprüft. Die Prüfergebnisse haben ergeben, daß die angegebenen Verbindungen von schwacher oder mittlerer Toxizität sind.

[7] = test system: diploidem Roggen Kharkovskaya 55; experiment: Field test of gametocidal activity, diploid rye Kharkovskaya 55; type: in vivo
Source text: as §1, §2, §3, §4, §5
Pflanzen von diploidem Roggen Kharkovskaya 55 werden in der V. Periode der Organogenese mit einer l%igen wäßrigen Emulsion von 1,1,3-Tribrompropan, 1,2,3-Tribrompropan, 1,2-Dibrompropan, 1,1,3-Tribrom-3-chlorpropan, 1,2--Dibrom-3-chlorpropan, 1,1,1,3-Tetrabromheptan, 1,1,3-Tribromheptan bzw. 1,2-Dibromheptan behandelt. Die Emulsion enthält 0,5 Masse% C12-C14-Kalziumalkylbenzolsulfonat und 0,01 Masse% Dimethylformamid als Adjuvans. Der Verbrauch an Präparat beträgt 6 kg/ha bei 600 1 Wasserdurchsatz. Die Prüfergebnisse sind in der Tabelle 13 angegeben. Die gleichen Ergebnisse sind bei der Behandlung von diploidem Roggen Kharkovskaya 55 in der VI. Periode der Organogenese erhalten.

[8] = test system: tetraploidem Roggen Belta; experiment: Field test of gametocidal activity, tetraploid rye Belta; type: in vivo; settings: period V, 1% aqueous emulsion, 6 kg/ha in 600 l water
Source text: as §1, §2, §3, §4, §5
Pflanzen von tetraploidem Roggen Belta werden in der V.Periode der Organogenese (nach Kupermann) mit einer 1%igen wäßrigen Emulsion von 1,1,3-Tribrompropan, 1,1,3--Tribrom-4-chlorbutan, 1,1,2,3-Tetrabrompropan, 1,2,3-Tribrompropan, 1,1,3-Tribrom-3-chlorpropan bzw. 1,2-Dibrom--3-chlorpropan behandelt.
Die Emulsion enthält 0,5 Masse% C12-C14-Kalziumalk^yl-benzolsulfonat und 0,01 Masse% Dimethylsulfoxid. Der Verbrauch an Präparat beträgt 6 kg/ha bei 600 1 Wasserdurchsatz.Die Prüfergebnisse sind in der Tabelle 7 angegeben. Die gleichen Ergebnisse sind bei der Behandlung von tetraploidem Roggen Belta in der VI. Periode der Organogenese erhalten.

[9] = Mironovskoye 94, period V, 1% aqueous emulsion, 6 kg/ha in 600 l water
[10] = read-out: Prozentsatz der Sterilität
[11] = Kharkovskaya 55, period V, 1% aqueous emulsion, 6 kg/ha in 600 l water

## CCCCCC(Br)C(Br)Br (stereo not drawn) [Beispiel 28, 1,1,2-Tribromheptan]
[1]
  Kornzahl der Ähre bei freier Bestäubung: 29,2
  Kornzahl der Ähre im Isolator: 0,0
  Prozentsatz der Sterilität: 100,0%
[1]; control = 100
  Prozentsatz des Ansetzens von Samen bei freier Bestäubung: 94,5%

## BrCCCBr [Beispiel 8, 1,3-Dibrompropan]
[2]
  Kornzahl der Ähre bei freier Bestäubung: 32,7
  Kornzahl der Ähre im Isolator: 0,0
  Prozentsatz des Ansetzens von Samen bei freier Bestäubung: 85,6%
  pest or weed control at 6000 g/ha: 100%
[3]; [9]
  Kornzahl der Rispe bei freier Bestäubung: 212,7
  Kornzahl der Rispe im Isolator: 0,0
[3]; Mironovskoye 94, period V, 1% aqueous emulsion, 6 kg/ha in 600 l water, control = 100
  Prozentsatz des Ansetzens von Samen bei freier Bestäubung: 86,9%
[3]; [10]
  pest or weed control at 6000 g/ha: 100%
[1]
  Kornzahl der Ähre bei freier Bestäubung: 24,7
  Kornzahl der Ähre im Isolator: 0,0
  Prozentsatz der Sterilität: 100,0%
[4]
  Kornzahl der Ähre bei freier Bestäubung: 37,1
  Kornzahl der Ähre im Isolator: 0,0
  Prozentsatz der Sterilität: 100,0%
[4]; control = 100
  Prozentsatz des Ansetzens von freier Bestäubung: 91,8%
[5]
  Kornzahl der Ähre bei freier Bestäubung: 38,7
  Kornzahl der Ähre im Isolator: 0,0
  Prozentsatz des Ansetzens von Samen bei freier Bestäubung: 93,0%
  pest or weed control at 1 %, 10000 g/ha: 100%
Diploidem Roggen Chulpan
  Kornzahl der Ähre bei freier Bestäubung: 41,7
  Kornzahl der Ähre im Isolator: 0,1
  Prozentsatz des Ansetzens von Samen bei freier Bestäubung: 83,2%
  pest or weed control at 10000 g/ha: 99.8%
[6]
  LD50: 473 ± 25 mg/kg

## ClC(Br)CC(Br)Br (stereo not drawn) [Beispiel 6, 1,1,3-Tribrom-3--chlorpropan]
[2]
  Kornzahl der Ähre bei freier Bestäubung: 37,8
  Kornzahl der Ähre im Isolator: 1,2
  Prozentsatz des Ansetzens von Samen bei freier Bestäubung: 98,9%
  pest or weed control at 6000 g/ha: 96.3%
[5]
  Kornzahl der Ähre bei freier Bestäubung: 37,0
  Kornzahl der Ähre im Isolator: 1,2
  Prozentsatz des Ansetzens von Samen bei freier Bestäubung: 99,2%
  pest or weed control at 1 %, 10000 g/ha: 96.8%
[7]; [11]
  Kornzahl der Ähre bei freier Bestäubung: 41,7
  Kornzahl der Ähre im Isolator: 0,1
[7]; Kharkovskaya 55, period V, 1% aqueous emulsion, 6 kg/ha in 600 l water, control = 100
  Prozentsatz des Ansetzens von Samen bei freier Bestäubung: 92,5%
[7]; [10]
  pest or weed control at 6000 g/ha: 99.8%
[8]
  Kornzahl der Ähre bei freier Bestäubung: 39,8
  Kornzahl der Ähre im Isolator: 0,1
  Prozentsatz der Sterilität: 99,9%
[8]; control = 100
  Prozentsatz des Ansetzens von Samen bei freier Bestäubung: 90,0%
Diploidem Roggen Chulpan
  Kornzahl der Ähre bei freier Bestäubung: 47,7
  Kornzahl der Ähre im Isolator: 0,6
  Prozentsatz des Ansetzens von Samen bei freier Bestäubung: 95,2%
  pest or weed control at 10000 g/ha: 98.8%
